Converted amounts (≈) assume the structure as drawn.
Experiments:
[1] = system: Syncephalastrum racemosum (RCMB 05922); assay: MIC by serial dilution method; assay type: cell-based; details: RCMB05922, fungi, read-out: Minimum inhibitory concentration, MIC, S.R
Experimental: (§1) All the newly synthesized compounds described in this report were screened for both antibacterial and antifungal activity via the reported agar diffusion well method (Vanden Berghe and Vlietinck, 1991[62]). The inhibition zones and minimum inhibitory concentrations (MIC) were determined by the serial dilution method (Cappuccino and Sherman, 1999[12]). The antimicrobial activity of the synthesized compounds was tested against a broad panel of microorganisms including two Gram-positive bacteria: Streptococcus pneumoniae (RCMB 010010) and Bacillus subtilis (RCMB 010067), two Gram-negative bacteria: Pseudomonas aeruginosa (RCMB 010043) and Escherichia coli (RCMB 010052), and four fungi: Aspergillus fumigatus (RCMB 02568), Syncephalastrum racemosum (RCMB 05922), Geotricum candidum (RCMB 05097), and Candida albicans (RCMB 05036). Ampicillin, ciprofloxacin, gentamicin and amphotericin B were used as positive control drugs (Atta-ur-Rahman and Thomsen, 2001[7]; Smania et al., 1999[57]). […] While in the case of Gm-ve bacteria, they had weak activity. In addition, certain strains of fungi were sensitive to tested compounds with an IZ range from 12-25 except Candida albicans.

[2] = system: Streptococcus pneumoniae (RCMB 010010); assay: MIC by serial dilution method; assay type: cell-based; details: RCMB010010, Gm+ve, read-out: Minimum inhibitory concentration, MIC, S.P
Experimental: as §1

[3] = system: Geotricum candidum (RCMB 05097); assay: MIC by serial dilution method; assay type: cell-based; details: fungi; read-out: Minimum inhibitory concentration, MIC, G.C
Experimental: as §1

[4] = system: Escherichia coli (RCMB 010052); assay: MIC by serial dilution method; assay type: cell-based; details: RCMB010052, Gm-ve, read-out: Minimum inhibitory concentration, MIC, E.C
Experimental: as §1

[5] = system: Bacillus subtilis (RCMB 010067); assay: MIC by serial dilution method; assay type: cell-based; details: RCMB010067, Gm+ve, read-out: Minimum inhibitory concentration, MIC, B.S
Experimental: as §1

[6] = system: Aspergillus fumigatus (RCMB 02568); assay: MIC by serial dilution method; assay type: cell-based; details: RCMB02568, fungi, read-out: Minimum inhibitory concentration, MIC, A.F
Experimental: as §1

[7] = system: human breast adenocarcinoma (MCF-7); assay: Cytotoxic screening; assay type: cell-based; details: Homo sapiens, MCF7; read-out: IC50 MCF-7
In short: (§2)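 Read-out is crystal violet staining (the text also names MTT), lysis in 33 % acetic acid, A590, with untreated cells as 100 %. IC50 was estimated graphically from survival curves.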

[8] = system: human hepatocellular carcinoma (HEPG-2); assay: Cytotoxic screening; assay type: cell-based; details: HepG2, read-out: IC50 HepG-2
In short: as §2

[9] = system: Human colon carcinoma (HCT-116); assay: Cytotoxic screening; assay type: cell-based; details: Homo sapiens, HCT-116; read-out: IC50 HCT-116
In short: as §2

Row | Structure (SMILES) | MIC [1] [µg/mL] | MIC [2] [µg/mL] | MIC [3] [µg/mL] | MIC [4] [µg/mL] | MIC [5] [µg/mL] | MIC [6] [µg/mL] | IC50 [7] [µg/mL] | IC50 [8] [µg/mL] | IC50 [9] [µg/mL] | melting point [°C]
1 | N#CC1=C(N)Oc2c(N)cc3ccccc3c2C1c1ccc(Cl)cc1 (stereo not drawn) [4b, 3,5-diamino-1-(4-chlorophenyl)-1H-benzo[f]chromene-2-carbonitrile] | 31.2 (≈ 89.8 µM) | 0.49 (≈ 1.41 µM) | 0.03 (≈ 0.0863 µM) | 15.6 (≈ 44.9 µM) | 0.007 (≈ 0.0201 µM) | 0.24 (≈ 0.69 µM) | 1 (≈ 2.88 µM) | 1 (≈ 2.88 µM) | 1.1 (≈ 3.16 µM) | 187
2 | N#CC1=C(N)Oc2c(ccc3c(N)cccc23)C1c1ccc(F)cc1 (stereo not drawn) [7c] | – | – | – | – | – | – | 1.4 (≈ 4.23 µM) | 0.7 (≈ 2.11 µM) | 2 (≈ 6.04 µM) | –
3 | N#CC1=C(N)Oc2c(N)cc3ccccc3c2C1c1ccc(F)cc1 (stereo not drawn) [4a, 3,5-diamino-1-(4-fluorophenyl)-1H-benzo[f]chromene-2-carbonitrile] | 7.81 (≈ 23.6 µM) | 15.6 (≈ 47.2 µM) | – | 7.81 (≈ 23.6 µM) | 3.9 (≈ 11.8 µM) | 15.6 (≈ 47.2 µM) | 1 (≈ 3.02 µM) | 0.3 (≈ 0.905 µM) | 1 (≈ 3.02 µM) | 193
4 | COc1ccc(N=Nc2cc3c(cc2O)OC(N)=C(C#N)C3c2ccc(F)cc2)cc1 (stereo not drawn) [13b, 2-Amino-4-(4-fluoro-phenyl)-7-hydroxy-6-(4-methoxy-phenylazo)-4H-chromene-3-carbonitrile] | 62.5 (≈ 150 µM) | 31.2 (≈ 75 µM) | 31.2 (≈ 74.9 µM) | 15.6 (≈ 37.5 µM) | 3.9 (≈ 9.37 µM) | 62.5 (≈ 150 µM) | 3.78 (≈ 9.08 µM) | 5.4 (≈ 13 µM) | 2.41 (≈ 5.79 µM) | 272
5 | Cc1ccc(C2C(C#N)=C(N)Oc3c(N)cc4ccccc4c32)cc1 (stereo not drawn) [4c, 3,5-diamino-1-(p-tolyl)-1H-benzo[f]chromene-2-carbonitrile] | 31.2 (≈ 95.5 µM) | 7.81 (≈ 23.9 µM) | 7.81 (≈ 23.9 µM) | 62.5 (≈ 191 µM) | 7.81 (≈ 23.9 µM) | 3.9 (≈ 11.9 µM) | 0.8 (≈ 2.44 µM) | 0.3 (≈ 0.916 µM) | 1.1 (≈ 3.36 µM) | 180

Reference: publication PMC5547389, “Structure-activity relationships and molecular docking studies of chromene and chromene based azo chromophores: A novel series of potent antimicrobial and anticancer agents” (EXCLI Journal, 2017)
